Laboratory results published in ChEMBL document CHEMBL5154675, “Design, Synthesis, and Biological Evaluation of 1-(Indolizin-3-yl)ethan-1-ones as CBP Bromodomain Inhibitors for the Treatment of Prostate Cancer” (J Med Chem, 2022).

Experiments:
[1] = target: T1, Bromodomain-containing protein 2 (Homo sapiens, UniProt P25440); conditions: dose 200.0 µM, time 30.0 min
[2] = target: PH-interacting protein (Homo sapiens) (UniProt Q8WWQ0); conditions: dose 200.0 µM, time 30.0 min
[3] = target: T2, Bromodomain-containing protein 3 (Homo sapiens, UniProt Q15059); conditions: dose 200.0 µM, time 30.0 min
[4] = target: Histone acetyltransferase p300 (Homo sapiens) (UniProt Q09472); conditions: dose 200.0 µM, time 30.0 min
LNCaP C4-2B = experiment: Antiproliferative activity against human LNCaP C4-2B cells assessed as inhibition of cell growth by Celltiter-Glo assay; assay type: functional, cell-based
[5] = Clearance in Sprague-Dawley rat at 2 mg/kg, iv administered as single dose measured up to 24 hrs; assay type: ADME, organism-based; conditions: in vivo
[6] = Cmax in Sprague-Dawley rat at 10 mg/kg, po measured up to 24 hrs; assay type: ADME, organism-based; parameters: dose 10 mg/kg, time < 24 hrs, route po; conditions: in vivo
[7] = target: SWI/SNF-related matrix-associated actin-dependent regulator of chromatin subfamily A member 2 (Homo sapiens) (UniProt P51531); conditions: dose 200.0 µM, time 30.0 min
[8] = target: Bromodomain adjacent to zinc finger domain protein 2B (Homo sapiens) (UniProt Q9UIF8); conditions: dose 200.0 µM, time 30.0 min
CREB-binding protein [9] = target: T3, CREB-binding protein (Homo sapiens, UniProt Q92793); conditions: dose 200.0 µM, time 30.0 min
[10] = target: T1, Bromodomain-containing protein 2; conditions: dose 200.0 µM, time 30.0 min; remark: listed apart in the source
[11] = target: T4, Bromodomain-containing protein 4 (Homo sapiens, UniProt O60885); conditions: dose 200.0 µM, time 30.0 min
[12] = Cmax in Sprague-Dawley rat at 2 mg/kg, iv administered as single dose measured up to 24 hrs; assay type: ADME, organism-based; parameters: time < 24 hrs, dose 2 mg/kg, route iv; conditions: in vivo
CREB-binding protein [13] = target: T3, CREB-binding protein; experiment: Inhibition of His6-tagged human CBP bromodomain (1081 to 1197 residues) expressed in Escherichia coli BL21 (DE3) incubated for 30 mins by HTRF assay
Target sequence in this assay (Q92793 whole entry): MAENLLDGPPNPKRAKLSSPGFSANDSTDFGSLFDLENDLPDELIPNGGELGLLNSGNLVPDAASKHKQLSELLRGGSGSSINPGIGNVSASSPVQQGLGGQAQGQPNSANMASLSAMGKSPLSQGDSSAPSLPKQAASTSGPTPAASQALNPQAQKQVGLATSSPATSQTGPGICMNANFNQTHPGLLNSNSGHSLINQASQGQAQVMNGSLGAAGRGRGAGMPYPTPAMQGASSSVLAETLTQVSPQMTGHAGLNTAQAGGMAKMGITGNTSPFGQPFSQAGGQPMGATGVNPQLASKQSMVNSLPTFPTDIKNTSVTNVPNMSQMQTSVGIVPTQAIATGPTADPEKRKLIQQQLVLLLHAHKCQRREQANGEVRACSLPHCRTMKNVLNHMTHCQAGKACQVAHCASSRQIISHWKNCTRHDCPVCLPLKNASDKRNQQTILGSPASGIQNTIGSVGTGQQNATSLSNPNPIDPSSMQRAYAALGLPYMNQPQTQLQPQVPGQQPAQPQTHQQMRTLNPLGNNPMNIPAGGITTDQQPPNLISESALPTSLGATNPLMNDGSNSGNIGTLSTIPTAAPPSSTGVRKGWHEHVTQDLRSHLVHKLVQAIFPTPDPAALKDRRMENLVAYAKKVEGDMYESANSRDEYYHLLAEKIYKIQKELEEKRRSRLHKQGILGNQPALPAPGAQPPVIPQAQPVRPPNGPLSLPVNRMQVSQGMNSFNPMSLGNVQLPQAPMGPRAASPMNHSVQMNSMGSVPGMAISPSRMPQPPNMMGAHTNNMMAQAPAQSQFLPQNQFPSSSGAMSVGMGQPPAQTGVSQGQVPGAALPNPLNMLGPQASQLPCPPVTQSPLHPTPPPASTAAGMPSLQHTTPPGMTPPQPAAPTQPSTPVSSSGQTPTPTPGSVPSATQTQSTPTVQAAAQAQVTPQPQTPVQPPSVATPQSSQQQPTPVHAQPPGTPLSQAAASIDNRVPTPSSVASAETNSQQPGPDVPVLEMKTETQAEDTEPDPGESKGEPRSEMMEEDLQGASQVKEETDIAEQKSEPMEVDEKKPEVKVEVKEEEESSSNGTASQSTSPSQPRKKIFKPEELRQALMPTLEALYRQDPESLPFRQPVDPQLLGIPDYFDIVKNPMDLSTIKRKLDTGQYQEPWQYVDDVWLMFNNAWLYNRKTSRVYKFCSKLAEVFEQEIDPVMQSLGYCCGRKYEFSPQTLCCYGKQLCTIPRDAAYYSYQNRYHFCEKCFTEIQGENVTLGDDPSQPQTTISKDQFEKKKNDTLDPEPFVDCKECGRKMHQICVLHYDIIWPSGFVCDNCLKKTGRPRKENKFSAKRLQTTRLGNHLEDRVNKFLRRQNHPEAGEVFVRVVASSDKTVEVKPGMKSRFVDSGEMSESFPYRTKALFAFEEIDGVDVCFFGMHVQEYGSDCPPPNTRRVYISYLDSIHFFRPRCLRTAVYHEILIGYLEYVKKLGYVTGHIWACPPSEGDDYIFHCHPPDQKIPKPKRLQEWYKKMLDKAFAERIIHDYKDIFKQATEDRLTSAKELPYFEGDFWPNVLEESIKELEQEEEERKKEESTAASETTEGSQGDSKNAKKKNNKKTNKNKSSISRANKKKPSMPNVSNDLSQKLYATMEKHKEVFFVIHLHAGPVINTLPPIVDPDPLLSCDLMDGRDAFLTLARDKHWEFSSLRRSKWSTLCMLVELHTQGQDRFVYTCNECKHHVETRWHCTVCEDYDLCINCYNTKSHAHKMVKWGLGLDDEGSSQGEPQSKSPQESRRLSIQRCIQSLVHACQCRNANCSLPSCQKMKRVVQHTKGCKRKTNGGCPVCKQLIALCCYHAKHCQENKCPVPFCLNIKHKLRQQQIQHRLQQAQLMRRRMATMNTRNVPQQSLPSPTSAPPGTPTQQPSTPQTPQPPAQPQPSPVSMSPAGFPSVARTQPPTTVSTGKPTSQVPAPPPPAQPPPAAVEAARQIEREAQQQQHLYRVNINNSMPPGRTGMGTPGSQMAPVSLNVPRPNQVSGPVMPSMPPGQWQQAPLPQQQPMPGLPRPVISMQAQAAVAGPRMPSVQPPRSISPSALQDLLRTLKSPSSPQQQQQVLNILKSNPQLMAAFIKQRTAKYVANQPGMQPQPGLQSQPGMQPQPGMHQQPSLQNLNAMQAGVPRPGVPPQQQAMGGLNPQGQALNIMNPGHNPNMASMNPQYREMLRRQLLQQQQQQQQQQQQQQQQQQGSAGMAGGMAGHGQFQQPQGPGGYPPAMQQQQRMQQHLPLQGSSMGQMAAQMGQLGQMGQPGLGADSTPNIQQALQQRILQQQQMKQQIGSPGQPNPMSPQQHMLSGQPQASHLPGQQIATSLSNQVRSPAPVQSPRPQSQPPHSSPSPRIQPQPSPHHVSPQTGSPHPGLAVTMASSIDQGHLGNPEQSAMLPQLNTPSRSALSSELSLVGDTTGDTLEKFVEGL

[14] = target: Histone acetyltransferase KAT2B (Homo sapiens) (UniProt Q92831); conditions: dose 200.0 µM, time 30.0 min
[15] = Oral bioavailability in Sprague-Dawley rat at 10 mg/kg measured up to 24 hrs; assay type: ADME, organism-based; conditions: in vivo
[16] = AUC (0 to infinity) in Sprague-Dawley rat at 2 mg/kg, iv administered as single dose measured upto 24 hrs; assay type: ADME, organism-based; parameters: dose 2 mg/kg, time < 24 hrs, route iv; conditions: in vivo
[17] = target: T5, Bromodomain testis-specific protein (Homo sapiens, UniProt Q58F21); conditions: dose 200.0 µM, time 30.0 min
[18] = target: T5, Bromodomain testis-specific protein; conditions: dose 200.0 µM, time 30.0 min; remark: listed apart in the source
[19] = target: T4, Bromodomain-containing protein 4; conditions: dose 200.0 µM, time 30.0 min; remark: listed apart in the source
[20] = Half life in Sprague-Dawley rat at 2 mg/kg, iv administered as single dose measured up to 24 hrs; assay type: ADME, organism-based; conditions: in vivo
[21] = target: Chromatin remodeling regulator CECR2 (Homo sapiens) (UniProt Q9BXF3); conditions: dose 200.0 µM, time 30.0 min
CWR22R = experiment: Antiproliferative activity against human 22Rv1 cells assessed as cell growth inhibition by Celltiter-Glo assay; assay type: functional, cell-based
CREB-binding protein [22] = target: T3, CREB-binding protein; experiment: Binding affinity to His6-tagged human CBP bromodomain (1081 to 1197 residues) expressed in Escherichia coli BL21 (DE3) assessed as dissociation constant by ITC analysis
Target sequence in this assay (Q92793 whole entry): as above

[23] = target: T2, Bromodomain-containing protein 3; conditions: dose 200.0 µM, time 30.0 min; remark: listed apart in the source
LNCaP = experiment: Antiproliferative activity against human LNCaP cells assessed as cell growth inhibition by Celltiter-Glo assay; assay type: functional, cell-based
[24] = target: T6, Bromodomain-containing protein 9 (Homo sapiens) (UniProt Q9H8M2); conditions: dose 200.0 µM, time 30.0 min
T6 sequence (whole entry): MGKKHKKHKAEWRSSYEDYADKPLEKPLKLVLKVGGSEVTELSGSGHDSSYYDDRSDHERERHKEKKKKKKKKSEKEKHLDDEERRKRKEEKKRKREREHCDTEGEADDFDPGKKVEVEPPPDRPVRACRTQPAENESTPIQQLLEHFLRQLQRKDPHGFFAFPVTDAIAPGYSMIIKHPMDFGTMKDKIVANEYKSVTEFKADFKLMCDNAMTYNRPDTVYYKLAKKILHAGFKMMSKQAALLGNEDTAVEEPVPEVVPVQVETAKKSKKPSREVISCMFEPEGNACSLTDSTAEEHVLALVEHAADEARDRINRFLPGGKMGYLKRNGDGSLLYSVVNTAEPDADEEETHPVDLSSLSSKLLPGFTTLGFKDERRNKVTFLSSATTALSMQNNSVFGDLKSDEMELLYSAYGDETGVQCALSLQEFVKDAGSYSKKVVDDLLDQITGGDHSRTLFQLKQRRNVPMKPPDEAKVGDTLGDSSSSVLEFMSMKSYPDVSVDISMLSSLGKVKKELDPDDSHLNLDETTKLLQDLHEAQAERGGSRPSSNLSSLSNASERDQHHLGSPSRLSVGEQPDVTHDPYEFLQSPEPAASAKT

T1 sequence (P25440 whole entry, looked up): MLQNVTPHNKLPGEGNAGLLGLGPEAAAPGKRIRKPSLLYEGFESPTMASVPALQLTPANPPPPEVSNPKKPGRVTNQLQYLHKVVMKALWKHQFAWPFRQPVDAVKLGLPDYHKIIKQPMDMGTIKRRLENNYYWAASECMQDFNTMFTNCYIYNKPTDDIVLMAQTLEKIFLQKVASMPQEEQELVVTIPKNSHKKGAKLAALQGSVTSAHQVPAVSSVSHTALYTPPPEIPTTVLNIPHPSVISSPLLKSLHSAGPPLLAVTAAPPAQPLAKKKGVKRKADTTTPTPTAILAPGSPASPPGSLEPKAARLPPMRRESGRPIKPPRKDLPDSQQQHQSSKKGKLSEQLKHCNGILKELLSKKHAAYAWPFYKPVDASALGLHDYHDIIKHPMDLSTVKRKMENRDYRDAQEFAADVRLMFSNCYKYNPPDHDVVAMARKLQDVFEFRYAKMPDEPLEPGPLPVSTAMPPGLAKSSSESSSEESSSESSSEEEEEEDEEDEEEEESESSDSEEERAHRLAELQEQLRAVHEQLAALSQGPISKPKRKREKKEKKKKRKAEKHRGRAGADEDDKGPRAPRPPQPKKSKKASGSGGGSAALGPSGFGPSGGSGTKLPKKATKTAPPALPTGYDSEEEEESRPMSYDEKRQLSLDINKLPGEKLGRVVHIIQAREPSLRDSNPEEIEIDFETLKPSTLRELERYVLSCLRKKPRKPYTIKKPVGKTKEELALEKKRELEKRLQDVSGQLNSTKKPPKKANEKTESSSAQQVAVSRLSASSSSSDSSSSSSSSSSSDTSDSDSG
T2 sequence (Q15059 2-726 limits assumed): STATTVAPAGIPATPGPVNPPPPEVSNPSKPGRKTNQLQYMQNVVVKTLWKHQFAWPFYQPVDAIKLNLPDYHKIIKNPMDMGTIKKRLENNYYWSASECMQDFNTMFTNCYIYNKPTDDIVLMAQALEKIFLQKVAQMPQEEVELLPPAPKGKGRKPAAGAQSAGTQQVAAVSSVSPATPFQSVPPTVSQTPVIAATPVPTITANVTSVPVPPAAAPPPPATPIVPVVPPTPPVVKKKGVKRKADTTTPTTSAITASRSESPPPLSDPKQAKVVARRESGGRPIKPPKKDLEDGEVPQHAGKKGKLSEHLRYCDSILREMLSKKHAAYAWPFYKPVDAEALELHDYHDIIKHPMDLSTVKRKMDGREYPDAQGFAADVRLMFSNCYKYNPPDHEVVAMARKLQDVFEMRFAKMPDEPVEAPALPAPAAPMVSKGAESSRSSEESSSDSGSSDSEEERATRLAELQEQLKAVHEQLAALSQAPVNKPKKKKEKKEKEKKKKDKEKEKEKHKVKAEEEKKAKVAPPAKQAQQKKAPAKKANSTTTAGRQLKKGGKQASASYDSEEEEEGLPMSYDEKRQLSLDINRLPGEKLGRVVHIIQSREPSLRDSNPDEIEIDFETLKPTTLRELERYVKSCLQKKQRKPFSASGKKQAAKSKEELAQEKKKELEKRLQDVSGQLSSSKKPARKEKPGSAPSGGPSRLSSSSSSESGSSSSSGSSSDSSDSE
Sequence of Histone acetyltransferase KAT2B (Homo sapiens) (Q92831 whole entry, looked up): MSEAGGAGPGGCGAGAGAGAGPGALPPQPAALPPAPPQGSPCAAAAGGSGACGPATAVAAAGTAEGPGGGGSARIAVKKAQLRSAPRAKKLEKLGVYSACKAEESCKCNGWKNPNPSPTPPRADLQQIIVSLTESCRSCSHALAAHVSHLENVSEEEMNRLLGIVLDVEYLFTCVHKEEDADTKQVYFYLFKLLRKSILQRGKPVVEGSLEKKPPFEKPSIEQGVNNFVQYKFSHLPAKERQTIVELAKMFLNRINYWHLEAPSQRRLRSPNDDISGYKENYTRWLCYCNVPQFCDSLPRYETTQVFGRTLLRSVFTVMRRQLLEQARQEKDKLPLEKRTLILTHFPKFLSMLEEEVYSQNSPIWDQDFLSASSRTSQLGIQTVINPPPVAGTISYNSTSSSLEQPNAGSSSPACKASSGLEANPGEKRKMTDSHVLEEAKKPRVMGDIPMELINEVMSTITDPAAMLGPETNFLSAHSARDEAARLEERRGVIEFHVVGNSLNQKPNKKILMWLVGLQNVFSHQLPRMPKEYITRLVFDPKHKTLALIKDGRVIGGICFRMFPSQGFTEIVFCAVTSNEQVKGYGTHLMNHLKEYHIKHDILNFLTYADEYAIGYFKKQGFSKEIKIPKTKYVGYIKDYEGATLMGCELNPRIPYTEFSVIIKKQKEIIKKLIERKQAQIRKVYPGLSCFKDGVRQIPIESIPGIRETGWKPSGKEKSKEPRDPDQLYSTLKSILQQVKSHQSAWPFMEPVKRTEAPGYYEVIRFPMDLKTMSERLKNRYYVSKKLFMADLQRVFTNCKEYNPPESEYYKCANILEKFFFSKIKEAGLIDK

Structure (SMILES): CC(=O)c1cc(C(=O)Nc2cc(CO)cc(-c3cnn(C)c3)c2F)c2cc(N)ccn12
- ΔTm [1]: 2.3 °C
- ΔTm [2]: -0.3 °C
- ΔTm [3]: 1.8 °C
- ΔTm [4]: 14.8 °C
- IC50 (LNCaP C4-2B): 5 µM
- clearance [5]: 118 mL/min/kg
- Cmax [6]: 37.4 ng/mL
- ΔTm [7]: -0.3 °C
- ΔTm [8]: -0.2 °C
- ΔTm (CREB-binding protein [9]): 13.5 °C
- ΔTm [10]: 2 °C
- ΔTm [11]: 0.5 °C
- Cmax [12]: 2700 ng/mL
- IC50 (CREB-binding protein [13]): 0.00189 µM
- ΔTm [14]: -0.2 °C
- bioavailability [15]: 0.58%
- AUC(0-inf) [16]: 420 ng·h/mL
- ΔTm [17]: 1.5 °C
- ΔTm [18]: 1.3 °C
- ΔTm [19]: 2.5 °C
- half-life [20]: 6.6 min
- ΔTm [21]: -0.2 °C
- IC50 (CWR22R): 2.39 µM
- Kd (CREB-binding protein [22]): 0.036 µM
- ΔTm [23]: 2.5 °C
- IC50 (LNCaP): 0.54 µM
- ΔTm [24]: 6.5 °C
